Tested on: cPLA2-IVA expressed in mouse brain
Test: Peptide binding to brain slices by IHC
Settings: for Binding (staining) to healthy NMRI and APP/PS1 mouse brain slices: biotinylated peptide 20 μM in HCN, overnight 4°C, DAB detection

| Sequence | Binding (staining) to healthy NMRI and APP/PS1 mouse brain slices | Staining of APP/PS1 versus healthy brain slices (biotinylated peptide 20 μM, 2 years old APP/PS1 mice) |
| --- | --- | --- |
| YQFGYDYPRSQV [PLP1] | unable to bind the brain tissue | – |
| HVTLRYMHPMVS [PLP25] | good staining | higher staining of APP/PS1 brain slices |
| DDFRVWWPNFPR [PLP2] | good staining | – |

— article PMC10789292 (Journal of Alzheimer's Disease Reports, 2023)
